The values below come from patent US12162881B2, “Forms and compositions of inhibitors of JAK2” (Ajax Therapeutics, Inc., priority 2021, dated 2024).

The nature of series [1]: Disproportionation of Compound 2 (HCl salt) stirred in water. To be noted: Form A obtained by disproportionation of Compound 2 in water (Example 11). The class given is physicochemical. As to the method:
An exemplary procedure for preparing Compound 1 Form A is as follows: Compound 1 Lot II (459.1 mg) was slurried in THF (4 mL). Concentrated HCl (154 μL, 2 equiv.) was added to the slurry. The off-white slurry rapidly changed to a yellow slurry. The slurry was stirred at ambient temperature for 1 day. Solids were collected by vacuum filtration and briefly dried under vacuum. The yellow material, assumed to be an HCl salt, was collected by vacuum filtration. The material (543.2 mg) was then suspended in H2O (5 mL) and stirred at ambient temperature for 2 days. Pale yellow solids were collected by vacuum filtration but appeared to still contain some HCl salt by XRPD. Solids were re-slurried in H2O (1 mL) at ambient temperature for additional 3 days. The off-white solids were collected by vacuum filtration and dried on filter until solids were no longer visibly damp.

Series [2] is described as follows: Variable relative humidity XRPD (VRH-XRPD). The class given is physicochemical. On the procedure: XRPD patterns were collected with a PANalytical X'Pert PRO MPD diffractometer using an incident beam of Cu Kα radiation produced using a long, fine-focus source and a nickel filter. The diffractometer was configured using the symmetric Bragg-Brentano geometry. Data were collected and analyzed using Data Collector software v. 5.5. Prior to the analysis, a silicon specimen (NIST SRM 640f) was analyzed to verify the observed position of the Si 111 peak is consistent with the NIST-certified position. A specimen of the sample was packed in a nickel-coated copper well. Antiscatter slits (SS) were used to minimize the background generated by air. Soller slits for the incident and diffracted beams were used to minimize broadening from axial divergence. Diffraction patterns were collected using a scanning position-sensitive detector (X'Celerator) located 240 mm from the sample and Data Collector software v. 5.5.
An Anton Paar temperature-humidity chamber (THC) was used while collecting in-situ XRPD patterns as a function of humidity. The temperature of the specimen was changed with a Peltier thermoelectric device located directly under the specimen holder and monitored with a platinum-100 resistance sensor located in the specimen holder. The thermoelectric device was powered and controlled by an Anton Paar TCU 50 interfaced with Data Collector. The humidity was generated with an RH-200 manufactured by VTI Inc. and carried by a flow of nitrogen gas. The humidity was monitored by a HygroClip sensor manufactured by Rotronic located next to the specimen inside the THC.
VRH-XRPD analysis was conducted to help determine water activity boundary for the solid-state conversion between hydrated Form A and anhydrous Form B. This method was utilized due the observed high tendency of Compound 1 to form solvates, which precluded the use of solvent-mediated approach.
Overall, two VRH-XRPD experiments were conducted to qualitatively evaluate RH conditions leading to predominance of Form A over Form B and vice versa. The kinetic component was not assessed.
The first VRH-XRPD experiment was conducted with a goal of observing dehydration of hydrated Form A. An initial XRPD scan was, therefore, acquired on Form A equilibrated in-situ at ambient RH for 45 minutes, which at the time of the analysis was ˜30%. The XRPD pattern from this scan was consistent with Form A (FIG. 39, top).
XRPD patterns were collected throughout the course of the experiment, each with a 10 minute scan.
XRPD patterns were collected throughout the course of the experiment, each with a 10 minute scan. The XRPD patterns remained Form B until the RH reached approximately 60% RH, where Form A became the primary phase with some Form B remaining (FIG. 41, top two spectra). Further decrease of Form B was observed through the remainder of the 60% RH hold at which point the experiment ended (FIG. 41, bottom two spectra). Complete conversion to Form A from Form B was not observed under these conditions.

Series [3] is described as follows: Relative humidity jar experiments (XRPD). In kind it is physicochemical. As to the method:
Relative humidify jar experiments: Solid Compound 1 was placed in relative humidity jars containing saturated solutions of various salts to maintain a desired relative humidity level at 25° C. One sample of Compound 1 was placed in a jar containing P205 in an effort to maintain 0% RH.

The target of series [4] is T1, JAK2 (JH1domain-catalytic, Y1007F,Y1008F) kinase (Homo sapiens, UniProt O60674, Y1007F/Y1008F).
T1 construct: JAK2 (JH1domain-catalytic, Y1007F,Y1008F) kinase was expressed as N-terminal fusion; made in house; host or cells: transiently transfected HEK293 cells
T1 sequence (O60674 849-1124 Y1007F/Y1008F limits assumed): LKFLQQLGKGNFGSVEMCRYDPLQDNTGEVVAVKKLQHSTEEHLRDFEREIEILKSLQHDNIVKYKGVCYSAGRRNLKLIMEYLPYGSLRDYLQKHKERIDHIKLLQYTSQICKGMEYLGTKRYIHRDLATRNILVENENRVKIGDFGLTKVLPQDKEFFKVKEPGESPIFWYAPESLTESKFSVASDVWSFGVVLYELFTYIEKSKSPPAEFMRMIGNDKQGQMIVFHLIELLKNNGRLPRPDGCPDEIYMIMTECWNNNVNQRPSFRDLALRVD
Nature of the series: JAK2 Binding Assay. To be noted: Compound 1 as prepared by Example 1. As to the method:
JAK2 (JH1domain-catalytic, Y1007F,Y1008F) kinase was expressed as N-terminal fusion to the DNA binding domain of NFkB in transiently transfected HEK293 cells and subsequently tagged with DNA for qPCR detection. Streptavidin-coated magnetic beads were treated with biotinylated small molecule ligands for 30 minutes at room temperature to generate affinity resins for kinase assays. The liganded beads were blocked with excess biotin and washed with blocking buffer (SeaBlock (Pierce), 1% BSA, 0.05% Tween 20, 1 mmol/L DTT) to remove unbound ligand and to reduce nonspecific phage binding. Binding reactions were assembled by combining kinases, liganded affinity beads, and test compounds in 1× binding buffer (1×PBS, 0.05% Tween 20, 0.1% BSA, 1 mmol/L DTT). Test compound was prepared as 111× stocks in 100% DMSO and directly diluted into the assay wells. All reactions were performed in polypropylene 384-well plates in a final volume of 0.02 mL. The assay plates were incubated at room temperature with shaking for 1 hour and the affinity beads were washed with wash buffer (1×PBS, 0.05% Tween 20). The beads were then re-suspended in elution buffer (1×PBS, 0.05% Tween 20, 0.5 μmol/L non-biotinylated affinity ligand) and incubated at room temperature with shaking for 30 minutes. The kinase concentration in the eluate was measured by qPCR.

The nature of series [5]: Drying experiments of solvated Compound 1 materials (vacuum oven, XRPD). The following applies: vac., 1 d. The class given is physicochemical. As to the method: Drying experiments: Damp and solvated Compound 1 materials were placed in vacuum ovens set to ambient temperature or 80° C. for 1 day. Dried solids were analyzed by XRPD.

For the compound `CC(=O)Nc1cc(Oc2cnc3nc(Nc4cc(C(F)(F)F)cn(C)c4=O)n(C)c3c2C#N)ccn1` [Compound 1 Form A, N-(4-((7-cyano-1-methyl-2-((1-methyl-2-oxo-5-(trifluoromethyl)-1,2-dihydropyridin-3-yl)amino)-1H-imidazo[4,5-b]pyridin-6-yl)oxy)pyridin-2-yl)acetamide], the “Stability relative to Compound 2” value in series [1] is reported as “superior stability”. Also, the “RH at which a small amount of Form B became visible” value in series [2] (Experiment 1, RH incrementally decreased from ~85%) is reported as “approximately 21 % RH”. Also, in series [2] (Experiment 1, decreasing RH), the “RH at which Form A was no longer visible” value is listed as about 5 % RH and the “RH at which Form B became the predominant phase” value worked out at 11 % RH. For the same compound, the “RH at which dehydration is expected to begin” value in series [2] (VRH-XRPD and DVS data combined) worked out at 20 % RH. In series [2] (overnight (17 h) hold under nitrogen stream (~0% RH)), the “Form change on hold under nitrogen stream” value is listed as “converted to Form B”.

In general, Kd refers to the constant that tells how readily two partners part at equilibrium. Consider `CC(=O)Nc1cc(Oc2cnc3nc(Nc4cc(C(F)(F)F)cn(C)c4=O)n(C)c3c2C#N)ccn1` [Compound 1, N-(4-((7-cyano-1-methyl-2-((1-methyl-2-oxo-5-(trifluoromethyl)-1,2-dihydropyridin-3-yl)amino)-1H-imidazo[4,5-b]pyridin-6-yl)oxy)pyridin-2-yl)acetamide], for which the “XRPD Results after RH stress” value is “B + minor A” in series [3] (23% RH, RT, 6 d); “A + B” in series [3] (43% RH, RT, 6 d); “A + B” in series [3] (54% RH, RT, 6 d); “B + peaks” in series [3] (P2O5 jar, 0% RH RT, 12 d). The same compound registered a Kd in series [4] of under 10 nM.

In the case of `CC(=O)Nc1cc(Oc2cnc3nc(Nc4cc(C(F)(F)F)cn(C)c4=O)n(C)c3c2C#N)ccn1` [Compound 1 Form F, N-(4-((7-cyano-1-methyl-2-((1-methyl-2-oxo-5-(trifluoromethyl)-1,2-dihydropyridin-3-yl)amino)-1H-imidazo[4,5-b]pyridin-6-yl)oxy)pyridin-2-yl)acetamide], the “XRPD Result after drying” value in series [5] (RT, listed as Form F) is listed as “Form F”.

`CC(=O)Nc1cc(Oc2cnc3nc(Nc4cc(C(F)(F)F)cn(C)c4=O)n(C)c3c2C#N)ccn1` [Compound 1 Form D, N-(4-((7-cyano-1-methyl-2-((1-methyl-2-oxo-5-(trifluoromethyl)-1,2-dihydropyridin-3-yl)amino)-1H-imidazo[4,5-b]pyridin-6-yl)oxy)pyridin-2-yl)acetamide]: the “XRPD Result after drying” value in series [5] (80° C.) is “Form D + peaks (some disorder)”; in series [5] (RT, listed as Form D), “Form D^a”.

For `CC(=O)Nc1cc(Oc2cnc3nc(Nc4cc(C(F)(F)F)cn(C)c4=O)n(C)c3c2C#N)ccn1` [Compound 1 Form G, N-(4-((7-cyano-1-methyl-2-((1-methyl-2-oxo-5-(trifluoromethyl)-1,2-dihydropyridin-3-yl)amino)-1H-imidazo[4,5-b]pyridin-6-yl)oxy)pyridin-2-yl)acetamide], the “XRPD Result after drying” value in series [5] (RT, listed as Form G) is reported as “Form B + peaks (some disorder)”.

Regarding `CC(=O)Nc1cc(Oc2cnc3nc(Nc4cc(C(F)(F)F)cn(C)c4=O)n(C)c3c2C#N)ccn1` [Compound 1 Form E, N-(4-((7-cyano-1-methyl-2-((1-methyl-2-oxo-5-(trifluoromethyl)-1,2-dihydropyridin-3-yl)amino)-1H-imidazo[4,5-b]pyridin-6-yl)oxy)pyridin-2-yl)acetamide], the “XRPD Result after drying” value in series [5] (RT, listed as Form E) is on record as “Form H (some disorder)”.
